Measurements published in ChEMBL document CHEMBL3526000 (Drug Metab Dispos, 2012).

Columns and labels:
Format in all cases: ADME
[1] = target: T1, UDP-glucuronosyltransferase 1A10 (Homo sapiens, UniProt Q9HAW8); assay: Drug metabolism assessed as recombinant human UGT1A10 assessed as O-glucuronidation at 100 uM incubated for 60 mins by LC-MS/MS analysis; settings: recombinant enzyme, 1 h
T1 sequence (Q9HAW8 whole entry): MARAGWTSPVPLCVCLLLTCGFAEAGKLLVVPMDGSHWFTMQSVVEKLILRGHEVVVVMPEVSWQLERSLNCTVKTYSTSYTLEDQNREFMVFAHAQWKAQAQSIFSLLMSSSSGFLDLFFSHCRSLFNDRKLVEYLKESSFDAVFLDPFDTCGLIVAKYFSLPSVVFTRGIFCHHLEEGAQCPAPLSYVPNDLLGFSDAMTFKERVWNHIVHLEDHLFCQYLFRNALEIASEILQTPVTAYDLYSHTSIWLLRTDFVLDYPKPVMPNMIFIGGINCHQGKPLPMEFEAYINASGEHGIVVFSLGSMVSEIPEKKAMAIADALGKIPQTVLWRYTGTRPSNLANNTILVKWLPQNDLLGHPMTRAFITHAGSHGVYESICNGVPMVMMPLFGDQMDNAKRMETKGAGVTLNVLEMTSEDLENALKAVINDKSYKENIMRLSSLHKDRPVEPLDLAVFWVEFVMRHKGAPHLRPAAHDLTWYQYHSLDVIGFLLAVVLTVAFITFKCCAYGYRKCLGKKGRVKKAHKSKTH

[2] = target: T2, UDP-glucuronosyltransferase 2B17 (Homo sapiens, UniProt O75795); assay: Drug metabolism assessed as recombinant human UGT2B17 assessed as O-glucuronidation at 100 uM incubated for 60 mins by LC-MS/MS analysis; settings: recombinant enzyme, 1 h
T2 sequence (O75795 whole entry): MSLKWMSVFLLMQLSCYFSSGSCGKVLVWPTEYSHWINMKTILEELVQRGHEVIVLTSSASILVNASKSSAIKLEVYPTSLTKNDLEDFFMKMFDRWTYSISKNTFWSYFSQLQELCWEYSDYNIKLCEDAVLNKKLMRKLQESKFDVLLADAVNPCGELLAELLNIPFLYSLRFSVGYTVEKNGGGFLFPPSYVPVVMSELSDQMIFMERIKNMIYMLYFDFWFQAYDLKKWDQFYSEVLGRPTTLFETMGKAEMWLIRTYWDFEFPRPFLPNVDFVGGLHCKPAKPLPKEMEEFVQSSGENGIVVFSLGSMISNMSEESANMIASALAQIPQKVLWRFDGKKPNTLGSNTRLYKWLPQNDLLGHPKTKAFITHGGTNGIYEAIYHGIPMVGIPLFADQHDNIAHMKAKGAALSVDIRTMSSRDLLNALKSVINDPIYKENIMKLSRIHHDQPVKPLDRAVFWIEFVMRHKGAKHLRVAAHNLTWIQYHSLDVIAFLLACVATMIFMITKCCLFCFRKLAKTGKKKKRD

[3] = Drug excretion in human urine; settings: read-out: Drug excretion
[4] = target: T3, UDP-glucuronosyltransferase 2B15 (Homo sapiens, UniProt P54855); assay: Drug metabolism assessed as recombinant human UGT2B15 assessed as O-glucuronidation at 100 uM incubated for 60 mins by LC-MS/MS analysis; settings: recombinant enzyme, 1 h
T3 sequence (P54855 whole entry): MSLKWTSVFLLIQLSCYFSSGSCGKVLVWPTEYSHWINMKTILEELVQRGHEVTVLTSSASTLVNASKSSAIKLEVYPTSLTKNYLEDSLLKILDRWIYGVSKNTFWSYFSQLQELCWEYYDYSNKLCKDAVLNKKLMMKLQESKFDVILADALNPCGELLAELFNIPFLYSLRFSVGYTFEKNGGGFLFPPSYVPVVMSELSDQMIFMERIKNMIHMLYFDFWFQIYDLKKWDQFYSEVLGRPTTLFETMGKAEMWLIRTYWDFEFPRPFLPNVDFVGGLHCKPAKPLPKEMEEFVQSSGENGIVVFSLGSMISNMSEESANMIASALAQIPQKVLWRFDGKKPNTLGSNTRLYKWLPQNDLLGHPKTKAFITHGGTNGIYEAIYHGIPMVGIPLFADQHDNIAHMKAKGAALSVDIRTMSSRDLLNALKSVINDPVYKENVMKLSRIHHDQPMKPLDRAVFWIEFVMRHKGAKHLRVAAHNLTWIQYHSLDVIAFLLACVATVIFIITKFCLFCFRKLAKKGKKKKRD

[5] = target: T4, UDP-glucuronosyltransferase 1A8 (Homo sapiens, UniProt Q9HAW9); assay: Drug metabolism assessed as recombinant human UGT1A8 assessed as O-glucuronidation at 100 uM incubated for 60 mins by LC-MS/MS analysis; settings: recombinant enzyme, 1 h
T4 sequence (Q9HAW9 whole entry): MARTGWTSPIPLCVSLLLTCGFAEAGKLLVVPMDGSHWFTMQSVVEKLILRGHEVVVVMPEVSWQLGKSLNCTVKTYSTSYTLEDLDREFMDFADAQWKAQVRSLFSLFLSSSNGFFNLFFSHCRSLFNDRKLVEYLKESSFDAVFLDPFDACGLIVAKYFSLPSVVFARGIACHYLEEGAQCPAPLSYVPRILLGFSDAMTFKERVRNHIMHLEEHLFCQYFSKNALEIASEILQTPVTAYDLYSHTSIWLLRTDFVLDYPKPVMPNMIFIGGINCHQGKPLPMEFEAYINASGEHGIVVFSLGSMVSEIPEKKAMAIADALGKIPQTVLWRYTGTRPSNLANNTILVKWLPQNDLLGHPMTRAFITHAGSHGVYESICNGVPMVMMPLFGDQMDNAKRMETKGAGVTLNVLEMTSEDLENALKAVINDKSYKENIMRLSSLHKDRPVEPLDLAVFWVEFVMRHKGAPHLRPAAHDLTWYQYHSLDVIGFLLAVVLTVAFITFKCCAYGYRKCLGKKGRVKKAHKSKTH

[6] = target: T5, UDP-glucuronosyltransferase 1A7 (Homo sapiens, UniProt Q9HAW7); assay: Drug metabolism assessed as recombinant human UGT1A7 assessed as N-glucuronidation at 100 uM incubated for 60 mins by LC-MS/MS analysis; settings: recombinant enzyme, 1 h
T5 sequence (Q9HAW7 whole entry): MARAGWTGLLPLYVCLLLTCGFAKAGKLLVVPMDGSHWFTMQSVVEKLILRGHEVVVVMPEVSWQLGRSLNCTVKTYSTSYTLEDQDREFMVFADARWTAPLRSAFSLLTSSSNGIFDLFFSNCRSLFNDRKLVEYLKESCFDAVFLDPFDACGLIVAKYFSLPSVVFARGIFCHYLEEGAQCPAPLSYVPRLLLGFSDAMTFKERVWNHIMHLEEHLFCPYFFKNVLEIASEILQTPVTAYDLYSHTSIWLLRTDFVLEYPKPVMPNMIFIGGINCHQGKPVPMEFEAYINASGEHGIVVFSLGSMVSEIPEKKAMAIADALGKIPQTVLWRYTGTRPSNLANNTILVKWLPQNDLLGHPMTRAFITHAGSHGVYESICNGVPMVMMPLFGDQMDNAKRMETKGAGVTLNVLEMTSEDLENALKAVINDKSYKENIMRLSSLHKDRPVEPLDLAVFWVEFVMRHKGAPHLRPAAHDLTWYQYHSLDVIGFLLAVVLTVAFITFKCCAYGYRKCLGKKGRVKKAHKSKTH

Drug metabolism [1]: metabolite_not_detected
Drug metabolism [2]: metabolite_not_detected
dose excreted [3]: 1%
Drug metabolism [4]: metabolite_not_detected
Drug metabolism [5]: metabolite_not_detected
Drug metabolism [6]: metabolite_not_detected
Compound: O=C(CCCN1CCC(O)(c2ccc(Cl)cc2)CC1)c1ccc(F)cc1 [HALOPERIDOL]
